Several values for one entry are separate records, joined by “and”; a condition that tells them apart may be missing. Equal entries are not always repeated.
Tested on: sperm
Test: Semen analysis: sperm number and seminal fluid parameters (CASA) after adolescent chemotherapy
Format: in vivo, human
Details: individual adult male osteosarcoma survivors, semen collected approximately ten years after chemotherapy at 14-20 years of age
From the text: The patients were 19-30 year-old male survivors of osteosarcoma recruited from the Seattle Children's Hospital in Seattle Wash. and four collaborating institutions (Children's Hospital of Pennsylvania, Philadelphia, Pa.; Miller Children's, Long Beach, Calif.; Children's Hospital, University of Minnesota, Minneapolis, Minn.; and Children's Hospital, Vanderbilt University, Nashville, Tenn.). These men had been treated for their disease with cisplatin-based chemotherapy regimens, including ifosfamide in some cases, when they were 14-20 years of age. Each patient was recruited by in-clinic or mail recruitment protocols. […]
Each patient and control was asked to provide a semen sample via home seminal fluid collection, which we used to allow for ease of subject participation since the sample can be obtained without the individual traveling to a laboratory. […] For sperm concentration (per ml), each participant's semen was diluted and assessed by CASA (Computer Assisted Sperm Analysis). […] Although sperm motility was not assessed (because it requires a fresh sample), count and morphology data nonetheless provide a great deal of information regarding spermatogenesis and abnormalities and both are associated with an increased risk of infertility. […]

N.N.[Cl][Pt][Cl] [Cisplatin, cisplatin]
Sperm # (Total Millions): 100.2 Total Millions and 170.5 Total Millions and 178 Total Millions and 7.34 Total Millions and 21 Total Millions and 49 Total Millions and 55 Total Millions

From patent US20190169691A1, “HERITABLE EPIGENETIC MODIFICATIONS AS MARKERS OF CHEMOTHERAPY EXPOSURE” (Washington State University, priority 2016, published 2019)
